This assay deals with T1, prolyl endopeptidase (PE, rhPE) (Homo sapiens, UniProt P48147).
T1 construct: gene PREP; recombinant human PE expressed in E. coli from plasmid pTrcHis PE
T1 sequence (P48147 1-710): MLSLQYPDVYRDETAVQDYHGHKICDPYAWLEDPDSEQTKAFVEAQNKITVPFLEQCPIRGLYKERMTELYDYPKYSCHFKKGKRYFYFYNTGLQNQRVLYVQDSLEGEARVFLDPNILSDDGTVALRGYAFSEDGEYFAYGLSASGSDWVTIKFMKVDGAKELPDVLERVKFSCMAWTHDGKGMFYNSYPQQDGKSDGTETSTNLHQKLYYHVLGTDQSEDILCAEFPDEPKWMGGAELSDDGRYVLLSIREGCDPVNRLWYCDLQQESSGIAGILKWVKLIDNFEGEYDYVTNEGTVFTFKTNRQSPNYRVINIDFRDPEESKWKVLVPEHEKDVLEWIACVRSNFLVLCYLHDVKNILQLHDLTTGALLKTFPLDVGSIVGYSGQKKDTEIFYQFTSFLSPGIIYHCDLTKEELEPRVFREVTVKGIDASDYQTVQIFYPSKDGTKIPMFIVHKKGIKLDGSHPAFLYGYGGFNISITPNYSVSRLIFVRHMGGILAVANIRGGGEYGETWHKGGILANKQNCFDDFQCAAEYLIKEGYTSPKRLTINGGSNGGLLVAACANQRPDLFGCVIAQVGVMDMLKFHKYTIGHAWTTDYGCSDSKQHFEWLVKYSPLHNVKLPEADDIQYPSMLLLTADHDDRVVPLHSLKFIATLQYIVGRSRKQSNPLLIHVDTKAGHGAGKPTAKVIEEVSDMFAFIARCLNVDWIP
Kind of assay: purified rhPE activity assay (Suc-Gly-Pro-AMC fluorescence / Suc-Gly-Pro-pNA UV-vis, Lineweaver-Burk); supported by CD and NMR competition with ZPP. It counts as biochemical.

Usually Ki stands for the equilibrium dissociation constant of an inhibitor or competing ligand from its target. A higher Ki goes with a looser hold on the target. `CCCC(CCC)C(=O)O` [VPA, Valproic acid] had a Ki of 1000 to 2000 µM.

The values are drawn from article PMC4023971, “Targeting Prolyl Endopeptidase with Valproic Acid as a Potential Modulator of Neutrophilic Inflammation” (PLoS ONE, 2014).
